These results are taken from ChEMBL document CHEMBL4321817, “A Chemical Probe for Tudor Domain Protein Spindlin1 to Investigate Chromatin Function” (J Med Chem, 2019).

The test system of one data set is U2OS. Description: Cytotoxicity against human U2OS cells assessed as reduction in cell viability at >3 uM incubated for 2 days by propidium iodide staining based assay. To be noted: 48 h.
The target in another data set is Spindlin-1 (Homo sapiens, UniProt Q9Y657). Nature of the data set: Displacement of trimethylated biotinylated histone H3 peptide from recombinant human His-tagged SPIN1 (26 to 262 residues) expressed in Escherichia coli BL21 (DE3) incubated for 30 mins followed by peptide addition and measured after 1 hr by Alphascreen method.
The target of data set [1] is T1, Histone-lysine N-methyltransferase EHMT2 (Homo sapiens, UniProt Q96KQ7).
T1 sequence (Q96KQ7 whole entry): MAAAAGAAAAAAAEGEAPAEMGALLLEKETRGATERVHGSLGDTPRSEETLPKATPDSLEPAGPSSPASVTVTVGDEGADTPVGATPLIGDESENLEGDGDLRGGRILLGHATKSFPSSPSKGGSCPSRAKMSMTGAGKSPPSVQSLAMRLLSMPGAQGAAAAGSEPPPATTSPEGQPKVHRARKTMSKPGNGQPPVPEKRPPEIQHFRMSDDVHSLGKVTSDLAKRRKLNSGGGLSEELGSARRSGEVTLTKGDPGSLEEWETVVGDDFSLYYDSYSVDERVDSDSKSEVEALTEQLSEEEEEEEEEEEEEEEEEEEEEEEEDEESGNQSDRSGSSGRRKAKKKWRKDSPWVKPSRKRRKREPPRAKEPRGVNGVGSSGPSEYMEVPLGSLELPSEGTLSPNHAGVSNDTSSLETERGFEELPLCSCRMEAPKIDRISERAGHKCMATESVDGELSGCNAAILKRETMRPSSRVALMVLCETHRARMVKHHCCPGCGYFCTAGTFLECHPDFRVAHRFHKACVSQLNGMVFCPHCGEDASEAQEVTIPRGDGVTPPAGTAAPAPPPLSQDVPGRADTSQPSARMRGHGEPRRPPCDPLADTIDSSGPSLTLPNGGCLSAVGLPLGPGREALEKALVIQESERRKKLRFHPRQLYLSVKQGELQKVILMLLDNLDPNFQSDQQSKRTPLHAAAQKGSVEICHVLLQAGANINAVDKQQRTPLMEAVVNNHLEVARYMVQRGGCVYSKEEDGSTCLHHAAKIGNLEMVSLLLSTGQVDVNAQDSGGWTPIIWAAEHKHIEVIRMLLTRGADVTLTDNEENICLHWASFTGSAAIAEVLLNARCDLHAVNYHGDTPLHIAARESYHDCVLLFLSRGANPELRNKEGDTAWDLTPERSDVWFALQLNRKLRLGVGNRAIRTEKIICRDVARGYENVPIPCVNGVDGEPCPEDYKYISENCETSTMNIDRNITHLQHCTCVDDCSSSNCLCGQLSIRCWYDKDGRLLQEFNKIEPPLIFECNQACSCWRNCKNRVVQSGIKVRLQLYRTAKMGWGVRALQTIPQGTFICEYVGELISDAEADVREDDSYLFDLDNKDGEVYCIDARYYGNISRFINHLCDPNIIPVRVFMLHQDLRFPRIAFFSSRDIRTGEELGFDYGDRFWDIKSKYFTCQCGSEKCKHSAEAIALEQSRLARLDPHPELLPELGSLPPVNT
Description: Inhibition of G9a (unknown origin) by scintillation proximity Assay. On the technique in general: SPA uses beads or plates that emit light when radiolabelled molecules are held near them.

A short description of data set [2]: Apparent permeability from apical side to basolateral side in human Caco2 cells. Format: ADME, cell-based. The settings on record: Caco-2. In general terms: Passage across Caco-2 layers is used to estimate intestinal permeability.
Data set [3] is described as follows: Stability in human liver microsomes assessed as intrinsic clearance. Format: ADME, Microsome. To be noted: read-out: CLH. In general terms: Liver microsomes are a subcellular fraction often used to study metabolism.
A short description of data set [4]: Stability in human liver microsomes assessed as half life. Format: ADME, Microsome.
Data set [5] is described as follows: Apparent permeability from basolateral side to apical side in human Caco2 cells. Format: ADME, cell-based. To be noted: Caco-2.
A short description of data set [6]: Solubility of compound at >100 uM. Format: physicochemical.
Data set [7] can be described thus: Stability in moue liver microsomes assessed as intrinsic clearance. The format is ADME, Microsome. To be noted: mouse, read-out: CLH.
The nature of data set [8]: Stability in mouse liver microsomes assessed as half life. Format: ADME, Microsome.

Spindlin-1, sequence (Q9Y657 whole entry, the tested form may be a part): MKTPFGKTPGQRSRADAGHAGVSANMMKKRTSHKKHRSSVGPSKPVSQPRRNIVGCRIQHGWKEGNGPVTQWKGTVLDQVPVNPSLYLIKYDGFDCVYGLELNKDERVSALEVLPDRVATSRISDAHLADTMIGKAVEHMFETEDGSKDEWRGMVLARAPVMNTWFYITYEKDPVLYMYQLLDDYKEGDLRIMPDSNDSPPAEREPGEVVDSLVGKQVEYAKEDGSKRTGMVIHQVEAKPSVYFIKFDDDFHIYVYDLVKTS

A word on the IC50: it is the concentration that gives 50% inhibition. With `CC1(C)C(N)=Nc2cc(OCCCCN3Cc4ccccc4C3)c(OCC3CC3)cc21`, in the data set on U2OS, the Activity result is “Toxic”. Further, the 50% inhibitory concentration (IC50) on Spindlin-1 is 6.92 µM; in data set [1], “Not Active”.

`COc1cc2c(cc1OCCCN1Cc3ccccc3C1)N=C(N)C21CCCC1`: the results for the concentration for half-maximal inhibition (IC50) (on Spindlin-1; in data set [1] (read-out: IC50)) were 0.66 µM and 10 µM, respectively.

In general, Papp A→B refers to the apparent permeability from the apical to the basolateral side of a cell layer. One may read the half-life as how long it takes for the measured level to halve. In general, Papp B→A refers to the apparent permeability from the basolateral to the apical side of a cell layer. With `CC1(C)C(N)=Nc2cc(OCCCN3Cc4ccc(OCCc5cn(CC(=O)N6CCC(CCN7CCCC7)CC6)nn5)cc4C3)c(OCC3CC3)cc21`, the Activity result in the data set on U2OS is listed as “Non-Toxic”. The apical-to-basolateral permeability (Papp A→B) in [2] was 6.59 ×10⁻⁶ cm/s. Besides, the microsomal CLint in data set [3] was 20.3 µL/min/mg; in data set [7], 37.4 µL/min/mg. Besides, the figures for the half-life in data set [4] and in data set [8] were 68.4 min and 37.1 min, respectively. Moreover, in data set [5], the Papp B→A came to 6.07 ×10⁻⁶ cm/s. Moreover, the solubility result in data set [6] was “Soluble”.

For `CC(C)Oc1cc2c(cc1OCCCN1CCCC1)N=C(N)C21CCCC1`, the values for the IC50 (on Spindlin-1; in [1] (read-out: IC50)) were 8.91 µM and 0.9 µM, respectively.

As for `CC1(C)C(N)=Nc2cc(OCCCN3Cc4ccccc4C3)c(OCC3CC3)cc21`, the Activity result with U2OS is “Toxic”. In addition, the IC50 result in [1] is “Not Active”.

`CC1(C)C(N)=Nc2cc(OCCCCN3Cc4ccc(OCc5cn(CC(=O)N6CCC(CCN7CCCC7)CC6)nn5)cc4C3)c(OCC3CC3)cc21`: the Activity result with U2OS is “Non-Toxic”.

As to `COc1ccc2c(c1)CN(CCCOc1cc3c(cc1OC)C1(CCCC1)C(N)=N3)C2`, the IC50 on Spindlin-1 is 0.6 µM.

Turning to `NC1=Nc2cc(OCCCN3Cc4ccccc4C3)c(OCC3CC3)cc2C12CCCC2`, the Activity entry in the data set with U2OS is reported as “Toxic”. Besides, the IC50 result in [1] was “Not Active”.

`COc1cc2c(cc1OCCCN1Cc3cccc(OC)c3C1)N=C(N)C21CCCC1`: the IC50 on Spindlin-1 was found to be 6.65 µM.

Consider `NC1=Nc2cc(OCCCCN3Cc4ccccc4C3)c(OCC3CC3)cc2C12CCCC2`, for which, in the data set on U2OS, the Activity result was “Toxic”. The results for the IC50 (on Spindlin-1; in [1]) were 6.22 µM and “Not Active”, respectively.

On to `COc1ccc2c(c1)CN(CCCOc1cc3c(cc1OCC1CC1)C1(CCCC1)C(N)=N3)C2`, for which the half-inhibitory concentration (IC50) at Spindlin-1 amounted to 0.34 µM.

In the case of `NC1=Nc2cc(OCCCN3CCCC3)c(OCC3CC3)cc2C12CCCC2`, the half-inhibitory concentration (IC50) on Spindlin-1 came out at 1.12 µM; in data set [1] (read-out: IC50), 3.1 µM.

Regarding `CCOc1cc2c(cc1OCCCN1CCCC1)N=C(N)C21CCCC1`, the IC50 in data set [1] (read-out: IC50) was 0.12 µM.

As for `COc1cc2c(cc1OCCCN1CCCC1)N=C(N)C21CCCC1`, the half-inhibitory concentration (IC50) in [1] (read-out: IC50) is 0.006 µM.
